Experimental data as given in ChEMBL document CHEMBL6134881, “From Natural Products to Small Molecules: Recent Advancements in Anti-MRSA Therapeutics” (ACS Med Chem Lett, 2025).
Values after ≈ are worked out from the molar mass of the structure shown.

Tested on: Staphylococcus aureus
Assay: Antibacterial activity against methicllin-resistant Staphylococcus aureus
Assay type: functional
Conditions: not given

First: CCCn1c2ccccc2c2c(OCC(O)CCC=C(C)C)cccc21 (configuration not stated)
Second: CCCCCn1c2ccccc2c2c(OCC(O)CCC=C(C)C)cccc21 (configuration not stated)
The MIC of the first is 8-fold higher: 50 µg/mL (≈ 142 µM) for the first, 6.25 µg/mL (≈ 16.5 µM) for the second.

Going from `CC(C)=CCCC(O)COc1cccc2c1c1ccccc1n2C` (configuration not stated) to `CC(C)=CCCC(O)COc1cccc2c1c1ccccc1n2CC=C(C)C` (configuration not stated), the MIC falls from over 50 µg/mL to 3.13 µg/mL (≈ 8.3 µM).

Compared with `CCCCCCCn1c2ccccc2c2c(OCC(O)CCC=C(C)C)cccc21` (configuration not stated), `CCCCCCCCCn1c2ccccc2c2c(OCC(O)CCC=C(C)C)cccc21` (configuration not stated) is 2-fold lower in MIC: 12.5 µg/mL (≈ 30.7 µM) for the first, 6.25 µg/mL (≈ 14.3 µM) for the second.

Tested on: Staphylococcus aureus
Assay: Antibacterial activity against methicillin-resistant Staphylococcus aureus ATCC 33591
Assay type: functional
Conditions: not given

Going from `CNC(=O)c1cc(Oc2ccc(NC(=O)Nc3cccc(C(F)(F)F)c3)cc2)ccn1` to `CNC(=O)c1cc(Oc2ccc(NC(=O)Nc3ccc(Cl)c(C(F)(F)F)c3)cc2)ccn1` [SORAFENIB], the MIC falls from over 100 µM to 3 µM (≈ 1.39 µg/mL).

Going from `O=C(O)c1c(Sc2ccccc2)c2cc(Cl)ccc2n1Cc1ccc(Cl)cc1` to `CNC(=O)c1cc(Oc2ccc(NC(=O)Nc3ccccc3)cc2)ccn1`, the MIC rises from 1 µM (≈ 0.428 µg/mL) to over 100 µM.

First: O=C(Nc1ccc2c(c1)OC(F)(F)O2)Nc1ccc(Cl)c(C(F)(F)F)c1
Second: CNC(=O)c1cc(Oc2ccc(NC(=O)Nc3ccc(Cl)c(C)c3)cc2)ccn1
The MIC of the first is lower: 0.3 µM (≈ 0.118 µg/mL) for the first, over 100 µM for the second.

First: CCC(c1ccc(O)cc1)C(CC)c1ccc(O)cc1 (configuration not stated)
Second: Oc1c(Cl)cc(Cl)cc1Sc1cc(Cl)cc(Cl)c1O [BITHIONOL]
The MIC of the first is 32-fold higher: 16 µM (≈ 4.33 µg/mL) for the first, 0.5 µM (≈ 0.178 µg/mL) for the second.

Tested on: Staphylococcus aureus
Assay: Antibacterial activity against […] Staphylococcus aureus ATCC 29213 assessed as reduction in bacterial growth incubated for 16 to 18 hrs by CLSI protocol based Muller Hinton broth assay
Assay type: functional
Conditions: time 16-18 hrs

`CC[C@H]1C[C@@H](OC(=O)CS[C@@H]2CC[C@@H](N)C[C@H]2O)[C@]2(C)[C@H](C)C[C@]3(CCC(=O)[C@H]32)[C@@H](C)[C@@H]1O` and `C[C@@H]1[C@@H](O)[C@H](C)[C@]23CCC(=O)[C@H]2[C@@](C)([C@H](C)CC3)[C@@H]1OC(=O)CS[C@@H]1CC[C@@H](N)C[C@H]1O` cannot be ordered by MIC: over 16 µg/mL for the first, over 32 µg/mL for the second.

Going from `CC[C@@]1(C)C[C@@H](OC(=O)CSc2ccncc2)[C@]2(C)[C@H](C)CC[C@]3(CCC(=O)[C@H]32)[C@@H](C)[C@@H]1O` to `C[C@@H]1CC[C@@]23CCC(=O)[C@H]2[C@]1(C)[C@H](OC(=O)CSc1ccncc1)CC(=O)[C@@H](O)[C@@H]3C`, the MIC rises from 0.06 µg/mL (≈ 0.127 µM) to over 16 µg/mL.

Tested on: Staphylococcus aureus
Assay: Antibacterial activity against methicillin-resistant Staphylococcus aureus ATCC 33591 assessed as inhibition of bacterial growth incubated for 24 hrs by Mueller-Hinton broth assay
Assay type: functional
Conditions: not given

Compared with `C=CCc1ccc(O)c(-c2ccc(O)c(CC=C)c2)c1` [HONOKIOL], `C=CCc1ccc(O)c(-c2cc(CC=C)ccc2O)c1` [MAGNOLOL] is 2-fold higher in MIC: 10 µg/mL (≈ 37.5 µM) for the first, 20 µg/mL (≈ 75.1 µM) for the second.

Tested on: HepG2
Assay: Cytotoxicity against human HepG2 cells assessed as reduction in cell viability by measuring lethal concentration by SRB assay
Assay type: functional
Conditions: read-out: LC50 (the source's name)

First: OCc1ccc2cc(-c3ccc(O)c(C45CC6CC(CC(C6)C4)C5)c3)ccc2c1
Second: O=C(O)c1ccc2cc(-c3ccc(O)c(C45CC6CC(CC(C6)C4)C5)c3)ccc2c1 [O-DEMETHYLATED ADAPALENE]
The CC50 of the first is higher: over 32 µg/mL for the first, 5 µg/mL (≈ 12.5 µM) for the second.

Tested on: not listed separately
Assay: Solubility of compound
Assay type: physicochemical
Conditions: not given

Compared with `Cn1cc(-c2ccc(Cn3cnc4c(N5CCNCC5)ncnc43)nc2)nn1`, `Cn1cc(-c2ccc(Cn3cnc4c(N5CCNCC5)ncnc43)cc2)nn1` is 3.7-fold lower in solubility: 114 µM (≈ 42.9 µg/mL) for the first, 31 µM (≈ 11.6 µg/mL) for the second.

Tested on: Staphylococcus aureus
Assay: Antibacterial activity against methicillin-resistant Staphylococcus aureus ATCC 43300 assessed as reduction in bacterial growth incubated for 18 hrs by mueller hinton broth dilution method
Assay type: functional
Conditions: not given

First: CC[N+](CC)=c1sc2c(s1)C(c1ccc(Cl)cc1)Oc1ccc(C)cc1-2.F[B-](F)(F)F (configuration not stated)
Second: CC[N+](CC)=c1sc2c(s1)C(c1ccc(Br)cc1)Oc1ccc(C)cc1-2.F[B-](F)(F)F (configuration not stated)
The MIC of the first is 2-fold higher: 3.9 µg/mL for the first, 1.95 µg/mL for the second.

First: OCc1ccc2cc(-c3ccc(O)c(C45CC6CC(CC(C6)C4)C5)c3)ccc2c1
Second: O=C(O)c1ccc2cc(-c3ccc(O)c(C45CC6CC(CC(C6)C4)C5)c3)ccc2c1 [O-DEMETHYLATED ADAPALENE]
The MIC of the first is 2-fold higher: 2 µg/mL (≈ 5.2 µM) for the first, 1 µg/mL (≈ 2.51 µM) for the second.

First: CC[N+](CC)=c1sc2c(s1)C(c1ccc(F)cc1)Oc1ccc(C)cc1-2.F[B-](F)(F)F (configuration not stated)
Second: O=C(O)/C=C/c1ccc(-c2ccc(O)c(C34CC5CC(CC(C5)C3)C4)c2)cc1 [ADAROTENE]
The MIC of the first is 8.3-fold higher: 16.6 µg/mL for the first, 2 µg/mL (≈ 5.34 µM) for the second.

Tested on: Staphylococcus aureus
Assay: Antibacterial activity against Staphylococcus aureus assessed as reduction in bacterial growth
Assay type: functional
Conditions: not given

Going from `Cn1cc(-c2ccc(Cn3cnc4c(N5CCNCC5)ncnc43)nc2)nn1` to `Cn1cc(-c2ccc(Cn3cnc4c(N5CCNCC5)ncnc43)cc2)nn1`, the MIC rises from 0.12 µg/mL (≈ 0.319 µM) to 0.25 µg/mL (≈ 0.666 µM) (2.1-fold).

For `Cn1cc(-c2ccc(Cn3cnc4c(N)ncnc43)cc2)nn1`, the MIC was 16.6 µg/mL (≈ 54.3 µM).

Tested on: Staphylococcus aureus
Assay: Antibacterial activity against Staphylococcus aureus ATCC 25923 assessed as reduction in bacterial growth incubated for 24 hrs by broth micro-dilution method
Assay type: functional
Conditions: not given

Going from `C=C[C@]1(C)C[C@@H](OC(=O)CS[C@@H]2CC[C@@H](N)C[C@H]2O)[C@]2(C)[C@H](C)CC[C@]3(CCC(=O)[C@H]32)[C@@H](C)[C@@H]1O` [LEFAMULIN] to `C=C[C@]1(C)C[C@@H](OC(=O)CS[C@@H]2C[C@H]3CC[C@@H](C2)N3C)[C@]2(C)[C@H](C)CC[C@]3(CCC(=O)[C@H]32)[C@@H](C)[C@@H]1O` [RETAPAMULIN], the MIC rises from 0.12 µg/mL (≈ 0.236 µM) to 0.25 µg/mL (≈ 0.483 µM) (2.1-fold).

Compared with `C=C[C@]1(C)C[C@@H](OC(=O)CSCCN(CC)CC)[C@]2(C)[C@H](C)CC[C@]3(CCC(=O)[C@H]32)[C@@H](C)[C@@H]1O` [TIAMULIN], `C=C[C@]1(C)C[C@@H](OC(=O)CSC(C)(C)CNC(=O)[C@H](N)C(C)C)[C@]2(C)[C@H](C)CC[C@]3(CCC(=O)[C@H]32)[C@@H](C)[C@@H]1O` [VALNEMULIN] is 4.2-fold lower in MIC: 0.25 µg/mL (≈ 0.506 µM) for the first, 0.06 µg/mL (≈ 0.106 µM) for the second.
